Measurements taken from article PMC8070004, “Isorhamnetin Ameliorates Dry Eye Disease via CFTR Activation in Mice” (International Journal of Molecular Sciences, 2021).

What was measured:
[1] = molecular target: WT-CFTR (Homo sapiens, UniProt P13569); test: Apical membrane current in WT-CFTR expressing FRT cells; format: cell-based; parameters: expressed in transfected cells; host or cells: FRT (Fisher rat thyroid) cells, provided by Dr. Alan Verkman
Method: Snapwell inserts containing CFTR-expressing FRT and T84 cells were mounted in Ussing chambers (Physiologic Instruments, San Diego, CA, USA). Forskolin, isorhamnetin, and CFTRinh-172 were added to the apical and basolateral bath solution. For FRT cells, the apical bath was filled with a half-Cl^− solution and the basolateral bath was filled with HCO^3--buffered solution to generate transepithelial Cl^− gradient (apical, 64 mM; basolateral, 129 mM), and the basolateral membrane was permeabilized with 250 µg/mL amphotericin B. For T84 cells, symmetrical HCO^3--buffered solutions were used, and ENaC was inhibited with amiloride (100 µM). All cells were bathed for a 20-min stabilization period and aerated with 95% O2/5% CO2 at 37 °C. Apical membrane current and short-circuit current were measured with an EVC4000 Multi-Channel V/I Clamp (World Precision Instruments, Sarasota, FL, USA) and recorded using PowerLab 4/35 (AD Instruments, Castle Hill, Australia). Data were collected and analyzed with ADInstruments acquisition software Labchart Pro 7 software. The sampling rate was 4 Hz.

[2] = tested on: corneal epithelial (CorE) cells; test: MTS cell viability assay in CorE cells; format: cell-based, human; settings: 48 h; isorhamnetin 30 μM, Triton X-100 0.01%
Method: Immortalized human CorE [47] and immortalized human ConjE (Innoprot, Bizkaia, Spain) cells were plated on 96-well microplates. After 24 h incubation, cells were treated with 30 μM isorhamnetin or 0.01% Triton X-100 and then they were incubated for two days. An equal amount of DMSO was added to the control. The culture medium and the compounds were changed every 12 h. To assess cell proliferation, after 48 h of incubation with the compound, the cells were reincubated with MTS for 1 h. The soluble formazan produced by cellular reduction of MTS was quantified by measuring the absorbance at 490 nm with Infinite M200 (Tecan, Grödig, Austria) microplate reader. MTS assay was done using CellTiter 96 AQueous One Solution Cell Proliferation Assay kit (Promega, Madison, WI, USA).

Sequence of WT-CFTR (P13569 whole entry): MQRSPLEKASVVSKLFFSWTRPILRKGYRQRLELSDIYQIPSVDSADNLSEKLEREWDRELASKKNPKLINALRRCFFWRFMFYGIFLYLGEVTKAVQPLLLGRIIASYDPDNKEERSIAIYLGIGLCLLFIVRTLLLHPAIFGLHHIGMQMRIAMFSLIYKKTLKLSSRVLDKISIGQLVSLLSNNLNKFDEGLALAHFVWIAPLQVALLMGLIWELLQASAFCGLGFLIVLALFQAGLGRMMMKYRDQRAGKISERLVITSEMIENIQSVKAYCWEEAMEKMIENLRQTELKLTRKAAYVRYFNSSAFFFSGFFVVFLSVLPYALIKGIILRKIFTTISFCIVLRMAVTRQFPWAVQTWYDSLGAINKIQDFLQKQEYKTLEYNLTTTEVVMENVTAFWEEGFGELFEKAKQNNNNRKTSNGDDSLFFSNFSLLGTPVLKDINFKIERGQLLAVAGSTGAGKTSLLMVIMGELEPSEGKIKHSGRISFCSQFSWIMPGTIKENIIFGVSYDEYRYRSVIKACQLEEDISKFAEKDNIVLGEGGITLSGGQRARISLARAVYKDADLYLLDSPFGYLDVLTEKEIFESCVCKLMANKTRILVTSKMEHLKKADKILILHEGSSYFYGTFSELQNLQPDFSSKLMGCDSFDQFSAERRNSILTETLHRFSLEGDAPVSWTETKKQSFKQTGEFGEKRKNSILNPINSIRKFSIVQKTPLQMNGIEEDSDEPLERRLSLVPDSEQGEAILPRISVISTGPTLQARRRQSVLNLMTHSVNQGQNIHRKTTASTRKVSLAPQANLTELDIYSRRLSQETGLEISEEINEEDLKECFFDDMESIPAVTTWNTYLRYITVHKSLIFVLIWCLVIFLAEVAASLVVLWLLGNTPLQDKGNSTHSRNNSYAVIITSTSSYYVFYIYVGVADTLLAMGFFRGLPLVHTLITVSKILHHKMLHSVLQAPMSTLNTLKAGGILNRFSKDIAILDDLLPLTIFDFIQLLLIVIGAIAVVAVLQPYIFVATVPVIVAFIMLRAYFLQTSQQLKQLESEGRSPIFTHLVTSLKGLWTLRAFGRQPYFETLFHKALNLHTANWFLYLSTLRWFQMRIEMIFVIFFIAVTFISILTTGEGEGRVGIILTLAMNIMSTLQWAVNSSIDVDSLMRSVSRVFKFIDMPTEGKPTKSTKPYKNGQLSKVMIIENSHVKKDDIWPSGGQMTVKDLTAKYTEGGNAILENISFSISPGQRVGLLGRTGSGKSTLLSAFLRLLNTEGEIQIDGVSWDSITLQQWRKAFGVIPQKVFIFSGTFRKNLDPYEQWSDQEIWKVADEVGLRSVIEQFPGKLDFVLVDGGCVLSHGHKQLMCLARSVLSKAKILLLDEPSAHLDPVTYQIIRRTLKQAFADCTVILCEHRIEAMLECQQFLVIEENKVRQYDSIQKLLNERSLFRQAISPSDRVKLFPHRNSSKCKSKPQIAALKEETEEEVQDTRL

COc1cc(-c2oc3cc(O)cc(O)c3c(=O)c2O)ccc1O [isorhamnetin]
EC50 [1]: 6.6 ± 1.1 µM
CFTR activation (apical membrane current) ([1]; 30 μM, current not further increased by 20 μM forskolin): fully activated
cell viability (MTS), CorE cells [2]: did not affect the cell viability
